± gives the standard deviation of the averaged measurements.
Tested on: WB-F344
Test: gap junctional intercellular communication (dye spread) relative to vehicle control (fraction of control); higher = more gap junction communication (less inhibition)
Experimental: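 Confluent WB-F344 rat liver epithelial cells were pretreated with vehicle, D609 (PC-PLC inhibitor, 50 µM, 20 min), U0126 (MEK1/2 inhibitor, 20 µM, 30 min) or resveratrol (100 µM, 15 min), then exposed to a GJIC-dysregulating chemical at the listed dose and time. GJIC was measured by scalpel loading-dye transfer with Lucifer Yellow (3 min), and the dye-spread area was quantified in ImageJ as a fraction of the vehicle control (FOC). Individual values come from at least 3 independent experiments.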

[1] = pretreatment: D609+GJIC dysreg.
[2] = pretreatment: U0126+GJIC dysreg.
[3] = dose note: (70 uM), pretreatment: D609+GJIC dysreg.
[4] = dose note: (70 uM), pretreatment: GJIC dysreg.
[5] = dose note: (70 uM), pretreatment: RES+GJIC dysreg.
[6] = dose note: (70 uM), pretreatment: U0126+GJIC dysreg.
[7] = dose note: (100 uM), pretreatment: D609+GJIC dysreg.
[8] = dose note: (100 uM), pretreatment: GJIC dysreg.
[9] = dose note: (100 uM), pretreatment: RES+GJIC dysreg.
[10] = dose note: (100 uM), pretreatment: U0126+GJIC dysreg.

Cc1nc2sccn2c(=O)c1CCN1CCC(=C(c2ccccc2)c2ccc(F)cc2)CC1 (compound abbreviation / co-treatment: R59022, exposure (dose, time): 30-50 µM, 10 min)
gap junctional intercellular communication [1]: 0.848 ± 0.081
gap junctional intercellular communication (pretreatment: GJIC dysreg.): 0.344 ± 0.13
gap junctional intercellular communication (pretreatment: RES+GJIC dysreg.): 0.867 ± 0.16
gap junctional intercellular communication [2]: 0.641 ± 0.11

Clc1ccc(C(c2ccccc2Cl)C(Cl)(Cl)Cl)cc1 (stereo unspecified) [1,1,1-Trichloro-2-(2-chlorophenyl)-2-(4-chlorophenyl)ethane] (compound abbreviation / co-treatment: DDT, exposure (dose, time): 30 µM,  20 min)
gap junctional intercellular communication [1]: 0.832 ± 0.089
gap junctional intercellular communication (pretreatment: GJIC dysreg.): 0.308 ± 0.053
gap junctional intercellular communication (pretreatment: RES+GJIC dysreg.): 0.777 ± 0.025
gap junctional intercellular communication [2]: 0.337 ± 0.082

Cc1cccc2cc3ccccc3cc12 [1-Methylanthracene] (compound abbreviation / co-treatment: 1-MeA, exposure (dose, time): 70 µM, 10 min)
gap junctional intercellular communication [1]: 0.872 ± 0.094
gap junctional intercellular communication (pretreatment: GJIC dysreg.): 0.278 ± 0.066
gap junctional intercellular communication (pretreatment: RES+GJIC dysreg.): 0.818 ± 0.14
gap junctional intercellular communication [2]: 0.262 ± 0.067

Cc1cccc2c1Cc1ccccc1-2 [1-Methylfluoren] (compound abbreviation / co-treatment: 1-MeFlu, exposure (dose, time): 70 µM, 10 min)
gap junctional intercellular communication [1]: 0.84 ± 0.13
gap junctional intercellular communication (pretreatment: GJIC dysreg.): 0.266 ± 0.076
gap junctional intercellular communication (pretreatment: RES+GJIC dysreg.): 1 ± 0.17
gap junctional intercellular communication [2]: 0.318 ± 0.052

Cc1ccc2ccc3cccc4ccc1c2c34 [1-Methylpyrene] (compound abbreviation / co-treatment: 1-MePyr, exposure (dose, time): 70 µM, 10 min)
gap junctional intercellular communication [1]: 0.956 ± 0.048
gap junctional intercellular communication (pretreatment: GJIC dysreg.): 0.397 ± 0.072
gap junctional intercellular communication (pretreatment: RES+GJIC dysreg.): 0.815 ± 0.15
gap junctional intercellular communication [2]: 0.345 ± 0.094

CCCCCCCCCCCC(=O)OCC(O)CO (stereo unspecified) [1-Monolaurin] (compound abbreviation / co-treatment: Lau, exposure (dose, time): 150 µM, 10 min)
gap junctional intercellular communication [1]: 0.245 ± 0.028
gap junctional intercellular communication (pretreatment: GJIC dysreg.): 0.229 ± 0.026
gap junctional intercellular communication (pretreatment: RES+GJIC dysreg.): 0.245 ± 0.034
gap junctional intercellular communication [2]: 0.234 ± 0.034

Clc1cc(Cl)c(-c2cc(Cl)c(Cl)cc2Cl)cc1Cl [2,2',4,4',5,5'-Hexachlorobiphenyl] (compound abbreviation / co-treatment: PCB 153, exposure (dose, time): 50 µM, 30 min)
gap junctional intercellular communication [1]: 0.781 ± 0.17
gap junctional intercellular communication (pretreatment: GJIC dysreg.): 0.353 ± 0.093
gap junctional intercellular communication (pretreatment: RES+GJIC dysreg.): 0.857 ± 0.11
gap junctional intercellular communication [2]: 0.278 ± 0.083

Cc1c2ccccc2c(C)c2ccccc12 [9,10-Dimethylanthracene] (compound abbreviation / co-treatment: 9,10-DiMeA, exposure (dose, time): 70-100 µM, 10 min)
gap junctional intercellular communication [3]: 0.888 ± 0.038
gap junctional intercellular communication [4]: 0.213 ± 0.06
gap junctional intercellular communication [5]: 0.744 ± 0.14
gap junctional intercellular communication [6]: 0.342
gap junctional intercellular communication [7]: 0.937 ± 0.033
gap junctional intercellular communication [8]: 0.317 ± 0.041
gap junctional intercellular communication [9]: 0.871 ± 0.15
gap junctional intercellular communication [10]: 0.356 ± 0.096

CCCCCCCCCCCCCC(=O)O[C@@H]1[C@@H](C)[C@@]2(O)[C@@H](C=C(CO)C[C@]3(O)C(=O)C(C)=C[C@@H]23)[C@@H]2C(C)(C)[C@]12OC(C)=O [12-O-tetradecanoylphorbol-13-acetate] (compound abbreviation / co-treatment: TPA, exposure (dose, time): 10 nM, 30 min)
gap junctional intercellular communication [1]: 0.309 ± 0.077
gap junctional intercellular communication (pretreatment: GJIC dysreg.): 0.202 ± 0.031
gap junctional intercellular communication (pretreatment: RES+GJIC dysreg.): 1.05 ± 0.13
gap junctional intercellular communication [2]: 0.967 ± 0.092

CCc1cccc(CC)c1N(COC)C(=O)CCl [Alachlor] (compound abbreviation / co-treatment: Alachlor, exposure (dose, time): 185 µM, 25 min)
gap junctional intercellular communication [1]: 0.285 ± 0.08
gap junctional intercellular communication (pretreatment: GJIC dysreg.): 0.259 ± 0.072
gap junctional intercellular communication (pretreatment: RES+GJIC dysreg.): 0.789 ± 0.14
gap junctional intercellular communication [2]: 0.356 ± 0.12

CCCCC/C=C\C/C=C\C/C=C\C/C=C\CCCC(=O)O [Arachidonic acid] (compound abbreviation / co-treatment: AA, exposure (dose, time): 70-100 µM, 15 min)
gap junctional intercellular communication [3]: 0.164
gap junctional intercellular communication [4]: 0.196
gap junctional intercellular communication [5]: 0.193
gap junctional intercellular communication [6]: 0.244
gap junctional intercellular communication (dose note: (75 uM), pretreatment: D609+GJIC dysreg.): 0.2
gap junctional intercellular communication (dose note: (75 uM), pretreatment: GJIC dysreg.): 0.2
gap junctional intercellular communication (dose note: (75 uM), pretreatment: RES+GJIC dysreg.): 0.207
gap junctional intercellular communication (dose note: (75 uM), pretreatment: U0126+GJIC dysreg.): 0.216
gap junctional intercellular communication (dose note: (90 uM), pretreatment: D609+GJIC dysreg.): 0.29 ± 0.055
gap junctional intercellular communication (dose note: (90 uM), pretreatment: GJIC dysreg.): 0.279 ± 0.058
gap junctional intercellular communication (dose note: (90 uM), pretreatment: RES+GJIC dysreg.): 0.25 ± 0.032
gap junctional intercellular communication (dose note: (90 uM), pretreatment: U0126+GJIC dysreg.): 0.347 ± 0.025
gap junctional intercellular communication [7]: 0.196
gap junctional intercellular communication [8]: 0.193
gap junctional intercellular communication [9]: 0.189
gap junctional intercellular communication [10]: 0.199

O=C(OOC(=O)c1ccccc1)c1ccccc1 [Benzoylperoxide] (compound abbreviation / co-treatment: BzOOH, exposure (dose, time): 200 µM, 15 min)
gap junctional intercellular communication [1]: 0.373 ± 0.057
gap junctional intercellular communication (pretreatment: GJIC dysreg.): 0.368 ± 0.085
gap junctional intercellular communication (pretreatment: RES+GJIC dysreg.): 0.313 ± 0.084
gap junctional intercellular communication [2]: 0.33 ± 0.14

CC(C)(OOC(C)(C)c1ccccc1)c1ccccc1 [Dicumylperoxide] (compound abbreviation / co-treatment: DiCuOOH, exposure (dose, time): 50 µM, 15 min)
gap junctional intercellular communication [1]: 0.884 ± 0.058
gap junctional intercellular communication (pretreatment: GJIC dysreg.): 0.386 ± 0.088
gap junctional intercellular communication (pretreatment: RES+GJIC dysreg.): 0.829 ± 0.081
gap junctional intercellular communication [2]: 0.324 ± 0.11

c1ccc2c(c1)-c1cccc3cccc-2c13 [Fluoranthene] (compound abbreviation / co-treatment: Fla, exposure (dose, time): 70 µM, 10 min)
gap junctional intercellular communication [1]: 0.718 ± 0.11
gap junctional intercellular communication (pretreatment: GJIC dysreg.): 0.245 ± 0.064
gap junctional intercellular communication (pretreatment: RES+GJIC dysreg.): 0.937 ± 0.23
gap junctional intercellular communication [2]: 0.285 ± 0.091

c1ccc2c(c1)Cc1ccccc1-2 [Fluoren] (compound abbreviation / co-treatment: Flu, exposure (dose, time): 100 µM, 10 min)
gap junctional intercellular communication [1]: 0.884 ± 0.12
gap junctional intercellular communication (pretreatment: GJIC dysreg.): 0.253 ± 0.034
gap junctional intercellular communication (pretreatment: RES+GJIC dysreg.): 0.848 ± 0.12
gap junctional intercellular communication [2]: 0.309 ± 0.013

— the supplement of paper PMC4449167
